Experimental data taken from BindingDB's records for patent US20240043403 (Astellas Pharma, 2024).

Target: Diacylglycerol kinase zeta (Homo sapiens, UniProt Q13574)
Test: Evaluation of DGKdelta Inhibitory Effect
Procedure: To a 384-well plate (Greiner Bio-One Co., Ltd.), 3 μL of a DGK ξ enzyme dissolved in an assay buffer (40 mM Tris-HCl pH 7.5, 10 mM MgCl2, 1 mM dithiothreitol (DTT) and 0.1 mg/mL bovine serum albumin (BSA)) (90 ng/mL) was added, and 3 μL of the test compound diluted with the same assay buffer was added so that an intended final concentration was obtained. The mixture was left standing at room temperature for 15 minutes, 3 μL of a substrate (150 μM 1-oleoyl-2-acetyl-sn-glycerol (Sigma-Aldrich Co. LLC), 480 μM phosphatidylserine (Avanti, Inc.) and 150 μM UltraPure-ATP (attached to ADP-Glo)) was then added, and the mixture was left standing at room temperature for 30 minutes to react. Thereafter, 3 μL of an ADP-Glo Reagent was added, and the mixture was left standing at room temperature for 40 minutes to stop the enzyme reaction. Further, 6 μL of a Kinase-Detection Reagent was added, the mixture was left standing at room temperature for 30 minutes, and the luminescence was then measured using ARVO X3 (PerkinElmer, Inc.). The half maximal inhibitory concentration (IC50) was calculated by Sigmoid-Emax model non-linear regression analysis, where the signal value in solvent treatment was set to 0% inhibition and the signal value without addition of the DGK ξ enzyme was set to 100% inhibition.

Diacylglycerol kinase zeta, sequence (Q13574 whole entry): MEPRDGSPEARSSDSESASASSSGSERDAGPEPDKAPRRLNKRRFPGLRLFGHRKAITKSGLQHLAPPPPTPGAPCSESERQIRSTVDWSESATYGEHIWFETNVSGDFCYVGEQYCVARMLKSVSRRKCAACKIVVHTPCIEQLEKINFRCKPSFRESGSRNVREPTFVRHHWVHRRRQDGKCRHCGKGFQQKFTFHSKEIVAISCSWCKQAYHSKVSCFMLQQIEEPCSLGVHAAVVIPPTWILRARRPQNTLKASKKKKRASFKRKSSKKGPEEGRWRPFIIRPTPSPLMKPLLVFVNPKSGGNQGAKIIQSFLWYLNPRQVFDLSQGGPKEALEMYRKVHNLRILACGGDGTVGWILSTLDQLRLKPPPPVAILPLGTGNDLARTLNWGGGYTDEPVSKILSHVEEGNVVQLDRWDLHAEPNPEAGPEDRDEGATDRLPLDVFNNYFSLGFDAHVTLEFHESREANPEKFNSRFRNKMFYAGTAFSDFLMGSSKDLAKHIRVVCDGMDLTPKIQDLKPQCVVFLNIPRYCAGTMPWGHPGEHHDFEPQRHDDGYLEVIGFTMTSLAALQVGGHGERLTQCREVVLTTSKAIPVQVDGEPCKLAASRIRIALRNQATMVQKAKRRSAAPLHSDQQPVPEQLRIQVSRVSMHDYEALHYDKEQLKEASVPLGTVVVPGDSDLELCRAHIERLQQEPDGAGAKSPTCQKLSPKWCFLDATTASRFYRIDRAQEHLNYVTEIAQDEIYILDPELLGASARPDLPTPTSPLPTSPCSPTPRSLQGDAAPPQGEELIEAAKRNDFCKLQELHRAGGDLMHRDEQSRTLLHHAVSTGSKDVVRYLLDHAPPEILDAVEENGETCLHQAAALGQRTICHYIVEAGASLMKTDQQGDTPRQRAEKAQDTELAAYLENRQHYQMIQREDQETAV

IC50: 0.016 µM
Structure (SMILES): NC[C@@H]1CCCN(c2c(NC(=O)c3ccn(CC(F)F)n3)ccc(Oc3ccccc3F)c2C(F)(F)F)C1 [US20240043403, Example 1]
